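Each compound was tested at five concentrations against cells in 96-well plates for 48 hours. Definition used: TGI = concentration required for complete inhibition of growth.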
Experiments:
Assay in all cases: NCI tumour cell line growth inhibition, 48 h
DLD-1 colon = test system: DLD-1 colon
KM20L2 colon = test system: KM20L2 colon
DMS 114 small cell lung = test system: DMS 114 small cell lung
XF 498 CNS = test system: XF 498 CNS
DMS 273 small cell lung = test system: DMS 273 small cell lung
HOP-18 NSCLC = test system: HOP-18 NSCLC
RXF-631 renal = test system: RXF-631 renal
P388/ADR leukemia = test system: P388/ADR leukemia
P388 leukemia = test system: P388 leukemia
SN12K1 renal = test system: SN12K1 renal

Row | Compound | TGI (DLD-1 colon) [µM] | TGI (KM20L2 colon) [µM] | TGI (DMS 114 small cell lung) [µM] | TGI (XF 498 CNS) [µM] | TGI (DMS 273 small cell lung) [µM] | TGI (HOP-18 NSCLC) [µM] | TGI (RXF-631 renal) [µM] | TGI (P388/ADR leukemia) [µM] | TGI (P388 leukemia) [µM] | TGI (SN12K1 renal) [µM]
1 | COc1cc(CC(C)N)ccc1O (stereo not drawn) | > 100 | > 100 | > 100 | > 100 | > 100 | > 100 | > 100 | – | – | –
2 | O=C1c2cccc(NCCNCCO)c2C(=O)c2cccc(NCCNCCO)c21 | 12.6 | 5.3 | 1.41 | 1.88 | 7.19 | 7.79 | 16.4 | – | – | –
3 | C[C@]12CC[C@H](O)C=C1CC[C@@H]1[C@@H]2CC[C@]2(C)C(c3ccc(=O)oc3)CC[C@]12O (stereo partly drawn) | 0.0392 | 0.148 | < 0.0125 | 0.0505 | 0.0427 | 0.0151 | – | 125 | 125 | 0.0201
4 | O=[N+]([O-])c1ccc(C2=Nc3ccccc3SC(c3ccccc3)C2)cc1 (stereo not drawn) | 48.3 | 32.8 | 32.8 | 31.6 | 27.5 | – | – | – | – | –
5 | Cc1c2ccncc2c(C)c2c1[nH]c1ccccc12 | 2.33 | 5.89 | 3.09 | 3.29 | 2.22 | 6.38 | – | 4.32 | 2.89 | 3.37
6 | COc1c(O)c(O)cc2c1-c1ccc(OC)c(=O)cc1C(NC(C)=O)CC2 (stereo not drawn) | > 100 | 17.5 | 6.43 | 54.2 | > 59.8 | > 100 | 68.4 | – | – | –
7 | COc1cc2c(c(O)c1O)-c1ccc(OC)c(=O)cc1C(NC(C)=O)CC2 (stereo not drawn) | > 100 | 11 | – | 38.5 | > 100 | > 100 | > 92.9 | – | – | –
8 | NC(=O)c1ncn2c1NC(=O)CC2 | > 100 | > 100 | > 100 | > 100 | > 100 | > 100 | – | > 100 | > 31.6 | > 100
9 | O=C(OCc1ccccc1)C(Cc1ccccc1)N(Cc1ccccc1)Cc1ccccc1 (stereo not drawn) | > 100 | > 100 | > 100 | > 100 | > 100 | – | – | – | – | –
10 | CCCCC#CS(=O)(=O)C(F)(F)F | > 100 | > 100 | > 100 | > 94.7 | > 100 | > 100 | – | > 100 | 63.2 | > 100

Source: PubChem BioAssay (NCI)
